Read-outs that look alike come from different tables or passages of the source.
Experiments:
[1] = molecular target: T1, recombinant PHD-bromodomain module of TRIM33 (Homo sapiens, UniProt Q9UPN9); experiment: AlphaScreen binding assay, TRIM33 with biotinylated H3K9me3K18ac peptide
T1 construct: rows headed: TRIM33 modulating activity; unit not given
T1 sequence (Q9UPN9 1-1127): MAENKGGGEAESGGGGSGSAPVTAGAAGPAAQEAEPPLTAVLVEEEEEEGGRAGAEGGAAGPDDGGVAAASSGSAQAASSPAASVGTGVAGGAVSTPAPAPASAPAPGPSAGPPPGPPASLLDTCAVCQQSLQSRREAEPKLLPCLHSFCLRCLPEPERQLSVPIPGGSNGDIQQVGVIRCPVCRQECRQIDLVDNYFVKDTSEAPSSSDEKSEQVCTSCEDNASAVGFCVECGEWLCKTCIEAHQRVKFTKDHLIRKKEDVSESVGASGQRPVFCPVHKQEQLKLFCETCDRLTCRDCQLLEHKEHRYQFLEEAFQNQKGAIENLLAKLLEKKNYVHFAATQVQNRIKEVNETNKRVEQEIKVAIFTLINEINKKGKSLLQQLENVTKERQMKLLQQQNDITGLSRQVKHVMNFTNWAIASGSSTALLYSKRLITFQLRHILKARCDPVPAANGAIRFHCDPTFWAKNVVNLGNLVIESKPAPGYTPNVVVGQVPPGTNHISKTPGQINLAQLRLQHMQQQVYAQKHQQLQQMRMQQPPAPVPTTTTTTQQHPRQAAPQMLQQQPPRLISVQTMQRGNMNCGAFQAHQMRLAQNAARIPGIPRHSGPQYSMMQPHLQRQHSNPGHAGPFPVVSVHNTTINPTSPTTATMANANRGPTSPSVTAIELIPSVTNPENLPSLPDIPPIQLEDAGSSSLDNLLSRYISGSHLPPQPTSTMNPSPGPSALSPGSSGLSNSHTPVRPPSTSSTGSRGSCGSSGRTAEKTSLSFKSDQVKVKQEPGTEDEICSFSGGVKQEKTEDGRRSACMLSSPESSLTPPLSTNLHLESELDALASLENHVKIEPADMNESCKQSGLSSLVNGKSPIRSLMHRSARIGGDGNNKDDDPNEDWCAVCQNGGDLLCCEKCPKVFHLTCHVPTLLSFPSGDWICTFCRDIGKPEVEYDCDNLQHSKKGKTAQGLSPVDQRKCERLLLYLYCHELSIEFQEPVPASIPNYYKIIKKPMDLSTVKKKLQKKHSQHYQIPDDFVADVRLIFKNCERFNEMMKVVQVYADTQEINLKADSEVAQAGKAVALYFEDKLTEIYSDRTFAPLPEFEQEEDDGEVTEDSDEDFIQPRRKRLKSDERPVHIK
Text: (§1) The IC50 or EC50 of the compound of the present application can be determined by various methods known in the art. For example, the IC50 or EC50 of the compound of the present application can be measured by an AlphaScreen assay, as described herein (see FIG. 1).
(§2) A compound of the present application can be tested for its TRIM33 and/or TRIM24 activity with AlphaScreen Assay illustrated in FIG. 1.
(§3) Additionally, a second AlphaScreen® binding assay for TRIM24 as counter-screening assay for selectivity of TRIM33 over TRIM24 was developed. A focused compound libraries for TRIM33 inhibitor development was designed and synthesized using the design principle that is to connect the bromodomain binding motif/fragment to proper chemical scaffold via multi-component reactions, such as Groebke-Blackburn-Bienaymé (GBB) coupling reaction, to establish chemically bias library.
(§4) With multiple libraries synthesized (˜400 compounds) as described above, compounds were screened against TRIM33 and TRIM24 by AlphaScreen to establish structure activity relationship (SAR).

[2] = system: recombinant PHD-bromodomain module of TRIM33; experiment: as above; details: compounds shown in Table 2a
Text: as §1, §2, §3, §4

TRIM24 = molecular target: T2, TRIM24 (Homo sapiens, UniProt O15164); experiment: AlphaScreen binding assay for TRIM24 (counter-screening assay)
T2 sequence (O15164 1-1050): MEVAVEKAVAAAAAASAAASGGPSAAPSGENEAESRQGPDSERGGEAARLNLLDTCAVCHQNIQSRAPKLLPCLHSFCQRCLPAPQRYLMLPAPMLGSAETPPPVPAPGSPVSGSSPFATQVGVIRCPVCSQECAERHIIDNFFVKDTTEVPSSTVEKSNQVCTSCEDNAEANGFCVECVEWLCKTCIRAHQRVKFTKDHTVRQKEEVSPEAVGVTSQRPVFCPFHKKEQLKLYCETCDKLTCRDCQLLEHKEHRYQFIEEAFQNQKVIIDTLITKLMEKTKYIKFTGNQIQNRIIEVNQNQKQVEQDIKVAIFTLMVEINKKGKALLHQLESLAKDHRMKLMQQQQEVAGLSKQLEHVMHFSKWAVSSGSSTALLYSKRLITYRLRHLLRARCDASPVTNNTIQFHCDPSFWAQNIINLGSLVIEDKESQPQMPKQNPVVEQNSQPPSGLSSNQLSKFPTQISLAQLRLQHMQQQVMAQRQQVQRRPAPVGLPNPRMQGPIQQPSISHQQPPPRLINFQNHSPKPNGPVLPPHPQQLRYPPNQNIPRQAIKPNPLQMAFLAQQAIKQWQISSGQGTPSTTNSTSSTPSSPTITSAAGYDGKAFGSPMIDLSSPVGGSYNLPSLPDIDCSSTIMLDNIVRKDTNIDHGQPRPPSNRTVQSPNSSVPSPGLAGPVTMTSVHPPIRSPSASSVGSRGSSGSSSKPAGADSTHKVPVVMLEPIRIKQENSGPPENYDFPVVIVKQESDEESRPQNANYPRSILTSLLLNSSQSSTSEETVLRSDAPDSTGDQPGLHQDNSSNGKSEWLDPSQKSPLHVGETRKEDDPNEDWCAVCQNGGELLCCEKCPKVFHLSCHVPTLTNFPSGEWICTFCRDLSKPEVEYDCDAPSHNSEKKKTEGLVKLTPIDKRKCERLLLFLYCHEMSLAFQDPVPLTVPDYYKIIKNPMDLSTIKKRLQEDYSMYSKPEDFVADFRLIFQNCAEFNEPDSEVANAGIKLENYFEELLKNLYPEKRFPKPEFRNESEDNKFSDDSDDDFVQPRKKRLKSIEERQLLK
Text: as §2, §3, §4

[3] = compounds shown in Table 2a, called TRIM33 IC50 in title of Table 5, unit inferred, read-out: TRIM33 modulating activity
[4] = compounds shown in FIG. 13A (Table 7), read-out: TRIM 33 IC50
[5] = compounds shown in FIG. 13A (Table 7), read-out: TRIM 24 IC50
[6] = compounds shown in FIG. 14A (Table 8), read-out: TRIM 33 IC50
[7] = compounds shown in FIG. 14A (Table 8), read-out: TRIM 24 IC50
[8] = compounds with R7/R7′ shown in FIG. 11A (Table 6), read-out: IC50 TRIM33
[9] = compounds with R7/R7′ shown in FIG. 11A (Table 6), read-out: IC50 TRIM24

SMILES: Brc1ccc2nc(-c3ccc4nccn4c3)c(NC3CCCCC3)n2c1 [Compound G7]
- IC50 [1, 3]: 121 µM
- Ratio of TRIM24 IC50 over TRIM33 IC50 [2]: 0.83

SMILES: CC(C)(C)Nc1c(-c2c(O)ccc3ccccc23)nc2ccccn12 [pck-9295-029]
- IC50 [1, 4]: 7.45 µM
- IC50 (TRIM24; [5]): 7.76 µM

SMILES: COC(=O)c1ccc2nc(-c3nc[nH]c3C)c(NCCN3CCOCC3)n2c1 [pck-9295-060]
- IC50 [1, 6]: 1.93 µM
- IC50 (TRIM24; [7]): 0.308 µM

SMILES: Cc1[nH]cnc1-c1nc2ccccn2c1NCCN1CCOCC1 [pck-9295-013]
- IC50 [1, 4]: 3.78 µM
- IC50 (TRIM24; [5]): 0.746 µM

SMILES: CCCOc1ccn2c(C(C)=O)cc(-c3nc4ccc(C(=O)OC)cn4c3NCCc3ccc(OC)c(OC)c3)c2c1 [Compound H2]
- IC50 [1, 3]: 12.2 µM
- Ratio of TRIM24 IC50 over TRIM33 IC50 [2]: 463.20

SMILES: COc1ccc(Nc2c(-c3c[nH]c(C)n3)nc3ccc(Br)cn23)cc1 [pck-9295-016]
- IC50 [1, 4]: 0.538 µM
- IC50 (TRIM24; [5]): 0.818 µM

SMILES: CCCOc1ccn2c(C(C)=O)cc(-c3nc4ccc(C(=O)OC)cn4c3NCCOC)c2c1 [Compound H3]
- IC50 [1, 3]: 77 µM
- Ratio of TRIM24 IC50 over TRIM33 IC50 [2]: 37.43

SMILES: COc1ccc(CCNc2c(-c3nc[nH]c3C)nc3cnccn23)cc1OC [Compound B8]
- IC50 [1, 3]: 44.2 µM
- IC50 [1, 8]: 0.283 µM
- Ratio of TRIM24 IC50 over TRIM33 IC50 [2]: 1276.41
- IC50 (TRIM24; [9]): 0.225 µM

SMILES: COc1ccc(CCNc2c(-c3cn(S(=O)(=O)c4ccc(C)cc4)c4ccccc34)nc3ccccn23)cc1OC [pck-9295-174]
- IC50 [1, 6]: 0.553 µM
- IC50 (TRIM24; [7]): 0.584 µM

SMILES: COc1ccc(CCNc2c(-c3c[nH]c(C)n3)nc3ccccn23)cc1OC [Compound A2]
- IC50 [1, 3]: 1.36 µM
- Ratio of TRIM24 IC50 over TRIM33 IC50 [2]: 32.77

SMILES: Cc1sc2c(c1C)C(c1ccc(Cl)cc1)=N[C@@H](CC(=O)NCCCCCCCCNC(=O)COc1cccc3c1C(=O)N(C1CCC(=O)NC1=O)C3=O)c1nnc(C)n1-2 (stereo partly drawn) [dBET6, reference compound]
- IC50 [1, 8]: 4.69 µM
- IC50 (TRIM24; [9]): 1.96 µM

SMILES: Cc1[nH]cnc1-c1nc2ccc(Br)cn2c1NCCN1CCOCC1 [Compound F10]
- IC50 [1, 3]: 26.2 µM
- Ratio of TRIM24 IC50 over TRIM33 IC50 [2]: 4.48

SMILES: CCCOc1ccn2c(C(C)=O)cc(-c3nc4ccc(C(=O)OC)cn4c3NC3CCCCC3)c2c1 [Compound H1]
- IC50 [1, 3]: 32.6 µM
- Ratio of TRIM24 IC50 over TRIM33 IC50 [2]: 7.82

SMILES: CCCOc1ccn2c(C(C)=O)cc(-c3nc4cnccn4c3NCCOC)c2c1 [Compound D9]
- IC50 [1, 3]: 138 µM
- Ratio of TRIM24 IC50 over TRIM33 IC50 [2]: 20.66

SMILES: Brc1ccc2nc(-c3ccc4nccn4c3)c(NCCN3CCOCC3)n2c1 [Compound G10]
- IC50 [1, 3]: 214 µM
- Ratio of TRIM24 IC50 over TRIM33 IC50 [2]: 6.43

SMILES: COCCNc1c(-c2nc[nH]c2C)nc2ccc(Br)cn12 [Compound F9]
- IC50 [1, 3]: 37 µM
- Ratio of TRIM24 IC50 over TRIM33 IC50 [2]: 3.62

SMILES: COC(=O)c1ccc2nc(-c3nc[nH]c3C)c(NC3CCCCC3)n2c1 [Compound F1]
- IC50 [1, 3]: 18.1 µM
- Ratio of TRIM24 IC50 over TRIM33 IC50 [2]: 7.89

SMILES: CCCOc1cc(OCCCCN(C)C)cc(Oc2cc3c(cc2NS(=O)(=O)c2ccc(OC)c(OC)c2)n(C)c(=O)n3C)c1 [IACS9571, reference compound]
- IC50 [1, 6]: 6.32 µM
- IC50 [1, 3]: 10.6 µM
- IC50 [1, 8]: 13.4 µM

SMILES: COc1ccc(CCNc2c(-c3ccc4nccn4c3)nc3ccccn23)cc1OC [Compound C2]
- IC50 [1, 3]: 24.9 µM
- Ratio of TRIM24 IC50 over TRIM33 IC50 [2]: 60.92

SMILES: CCCOc1ccn2c(C(C)=O)cc(-c3ccccc3S(C)(=O)=O)c2c1 [GS-A, reference compound]
- IC50 [1, 3]: 50.9 µM

SMILES: Cc1[nH]cnc1-c1nc2cnccn2c1NC1CCCCC1 [Compound B7]
- IC50 [1, 3]: 116 µM
- Ratio of TRIM24 IC50 over TRIM33 IC50 [2]: 0.78

SMILES: COc1ccc(Nc2c(-c3nc[nH]c3C)nc3ccccn23)cc1 [pck-9295-014]
- IC50 [1, 4]: 0.641 µM
- IC50 (TRIM24; [5]): 0.356 µM

SMILES: COCCNc1c(-c2ccco2)nc2ccc(C(=O)OC)cn12 [pck-9295-032]
- IC50 [1, 4]: 21.8 µM

SMILES: CCOC(=O)CNc1c(-c2ccco2)nc2ccc(C(=O)OC)cn12 [pck-9295-035]
- IC50 [1, 4]: 10.8 µM
- IC50 (TRIM24; [5]): 5.25 µM

SMILES: COc1ccc(CCNc2c(-c3c[nH]c(C)n3)nc3cnccn23)cc1OC [Compound A8]
- IC50 [1, 3]: 269 µM

SMILES: COc1ccc(CCNc2c(-c3nc(C)n4ccccc34)nc3ccccn23)cc1OC [pck-9295-173]
- IC50 [1, 6]: 44.3 µM
- IC50 (TRIM24; [7]): 9.44 µM

SMILES: COCCNc1c(-c2nc[nH]c2C)nc2ccc(C(=O)OC)cn12 [Compound F3]
- IC50 [1, 3]: 44 µM
- Ratio of TRIM24 IC50 over TRIM33 IC50 [2]: 11.61

SMILES: COC(=O)c1ccc2nc(-c3nc[nH]c3C)c(NCCc3ccc(OC)c(OC)c3)n2c1 [Compound F2]
- IC50 [1, 3]: 12.6 µM
- Ratio of TRIM24 IC50 over TRIM33 IC50 [2]: 29.84

SMILES: Cc1nc[nH]c1-c1nc2ccc(C(=O)NN)cn2c1NCCN1CCOCC1 [pck-9295-134]
- IC50 [1, 6]: 1.29 µM
- IC50 (TRIM24; [7]): 0.303 µM

SMILES: COC(=O)c1ccc2nc(-c3cn(S(=O)(=O)c4ccc(C)cc4)c4ccccc34)c(NCc3ccccc3)n2c1 [pck-9295-175]
- IC50 [1, 6]: 0.32 µM
- IC50 (TRIM24; [7]): 0.415 µM

SMILES: COCCNc1c(-c2ccc3nccn3c2)nc2ccc(C(=O)OC)cn12 [Compound G3]
- IC50 [1, 3]: 357 µM
- Ratio of TRIM24 IC50 over TRIM33 IC50 [2]: 78.61

SMILES: COCCNc1c(-c2c[nH]c(C)n2)nc2cnccn12 [Compound A9]
- IC50 [1, 3]: 286 µM
- Ratio of TRIM24 IC50 over TRIM33 IC50 [2]: 321.31

SMILES: COc1ccc(CCNc2c(-c3c[nH]c(C)n3)nc3ccc(Br)cn23)cc1OC [Compound E8]
- IC50 [1, 3]: 3.46 µM
- Ratio of TRIM24 IC50 over TRIM33 IC50 [2]: 18.38
